Test results as given in US20240115549A1, “TREATMENT OF MENTAL DISORDERS” (GH Research Ireland Limited, priority 2022, published 2024).

Experiment: LC-MS/MS of 5-MeO-DMT, bufotenine and 5-MIAA in breastmilk, serum and urine of a treated PPD patient; infant dose estimates
Settings: for Breastmilk concentration / Serum concentration / Urine concentration: second PPD patient, LC-MS/MS
[1] = 5 kg infant, three feeds of 250 ml
[2] = 8.5 hrs after last dose, inhaled 5-MeO-DMT
[3] = 24.0 hrs after last dose, inhaled 5-MeO-DMT
[4] = 120.0 hrs after last dose, inhaled 5-MeO-DMT
[5] = timepoint −24.0 hrs (pre-dosing), inhaled 5-MeO-DMT 6 mg then 12 mg

COc1ccc2[nH]cc(CCN(C)C)c2c1 [5-MeO-DMT]
DID per kg infant weight [1]: 0.0001385 mg/kg/day | Total exposure of the infant (DID) [1]: 0.0006924 mg/day | Detection in breastmilk (after 24 hours): did not detect any 5-MeO-DMT | Serum concentration at timepoints after 1 hour (all subsequent timepoints): below the lower limit of quantification | Breastmilk concentration (1.0 hrs after last dose, inhaled 5-MeO-DMT): 2167.0 pg/mL | Breastmilk concentration (2.5 hrs after last dose, inhaled 5-MeO-DMT): 560.6 pg/mL | Breastmilk concentration [2]: 42.1 pg/mL | Breastmilk concentration [3]: BLG | Breastmilk concentration [4]: BLQ | Breastmilk concentration [5]: BLQ | concentration at 1 h (female, human, serum, inhaled): 133 µg/mL | Serum concentration (serum, 1.0 hrs after last dose, inhaled 5-MeO-DMT): 0.0001329 µg/mL | Serum concentration (serum, 2.5 hrs after last dose, inhaled 5-MeO-DMT): BLQ | Serum concentration (serum, 24.0 hrs after last dose, inhaled 5-MeO-DMT): BLQ | Serum concentration (serum, 120.0 hrs after last dose, inhaled 5-MeO-DMT): BLQ | Serum concentration (serum, timepoint −24.0 hrs (pre-dosing), inhaled 5-MeO-DMT 6 mg then 12 mg): BLQ | Urine concentration [2]: BLQ | Urine concentration [3]: BLQ | Urine concentration [4]: BLQ | Urine concentration [5]: BLQ
